Reference: patent publication US20250114387A1, “PHARMACEUTICAL COMPOSITION COMPRISING ENAVOGLIFLOZIN FOR PREVENTING OR TREATING OBESITY IN CANINE ANIMALS” (DAEWOONG PHARMACEUTICAL CO., LTD., priority 2022, published 2025)

What was measured:
[1] = Non-clinical toxicity test: 13 weeks repeated oral administration, changes in body weight; assay type: in vivo, beagles
Procedure: Changes in body weight were confirmed after administering enavogliflozin to four female and four male 6-month-old normal beagles at 0 (control, gelatin capsule), 1, 3, and 6 mg/kg/day for 13 weeks. The above amounts of enavogliflozin were charged in a gelatin capsule and administered daily.

obese dogs [2] = test: Clinical trial in obese dogs: feed intake; assay type: in vivo; details: for feed intake compared to the control (OC): during the 10-week experimental period
Procedure: A total of 20 dogs were selected and divided into 4 groups with 5 dogs in each group: a normal obese control (OC); hereinafter, referred to as a control (OC)), an enavogliflozin 0.2-administered group, an enavogliflozin 0.5-administered group, and an enavogliflozin 1-administered group. The control was fed regular feed, and the enavogliflozin-administered groups were fed regular feed supplemented with enavogliflozin at doses of 0.2, 0.5, or 1 mg/kg, respectively. […]

obese dogs [3] = test: Clinical trial in obese dogs: hematological tests; assay type: in vivo
Procedure: (§1) A total of 20 dogs were selected and divided into 4 groups with 5 dogs in each group: a normal obese control (OC); hereinafter, referred to as a control (OC)), an enavogliflozin 0.2-administered group, an enavogliflozin 0.5-administered group, and an enavogliflozin 1-administered group. The control was fed regular feed, and the enavogliflozin-administered groups were fed regular feed supplemented with enavogliflozin at doses of 0.2, 0.5, or 1 mg/kg, respectively. The feed was supplemented with enavogliflozin once a day for 8 weeks and given orally.
Hematological tests were performed on the day before the first administration of enavogliflozin and once every two weeks for the next 10 weeks. A portion of the blood collected on the day of the test was stored in a CBC tube containing the anticoagulant EDTA-2K to assess a red blood cell (RBC) count, hematocrit (Hct), a hemoglobin (Hb) concentration, a white blood cell (WBC) count, and a platelet (PLT) count using an automated hematology analyzer (ADVIA 2120i™, Siemens Healthcare Diagnostics, Vienna, Austria).

obese dogs [4] = test: Clinical trial in obese dogs: urine test strips, urinary glucose excretion; assay type: in vivo
Procedure: as §1
Serum insulin concentrations were measured 2, 4, 6, 8, and 10 weeks after the start of enavogliflozin administration using a Quantikine Canine Insulin ELISA kit (Catalog no. DINS00, R&D Systems, Minneapolis, MN, USA) according to the manufacturer's protocol. […]

[5] = 0.2 mg/kg once a day oral for 8 weeks
[6] = 0.5 mg/kg once a day oral for 8 weeks
[7] = 1 mg/kg once a day oral for 8 weeks
[8] = 0.2 mg/kg once a day oral for 8 weeks, 10 weeks
[9] = 0.2 mg/kg once a day oral, 2 weeks
[10] = 0.2 mg/kg once a day oral, 4 weeks

- Hb (obese dogs [3]; [5]): 16.34 ± 2.68 g/dL
- Hct (obese dogs [3]; [5]): 49.86 ± 7.08%
- Platelet (obese dogs [3]; [5]): 392.20 ± 11.16 ×10^3/μL
- RBC (obese dogs [3]; [5]): 6.92 ± 0.79 ×10^6 μL
- WBC (obese dogs [3]; [5]): 11.12 ± 3.69 ×10^3 μL
- Hb (obese dogs [3]; [6]): 16.40 ± 0.70 g/dL
- Hct (obese dogs [3]; [6]): 50.26 ± 1.94%
- Platelet (obese dogs [3]; [6]): 307.40 ± 6.02 ×10^3/μL
- WBC (obese dogs [3]; [6]): 7.75 ± 2.04 ×10^3 μL
- Hb (obese dogs [3]; [7]): 16.16 ± 2.15 g/dL
- Hct (obese dogs [3]; [7]): 46.76 ± 6.13%
- Platelet (obese dogs [3]; [7]): 299.10 ± 7.65 ×10^3/μL
- RBC (obese dogs [3]; [7]): 6.55 ± 1.08 ×10^6 μL
- WBC (obese dogs [3]; [7]): 10.01 ± 3.35 ×10^3 μL
- hematological indicators, differences between the administration groups (obese dogs [3]; 10-week trial period, except for the platelet (PLT) count): no significant differences
Structure (SMILES): OC[C@H]1O[C@@H](c2cc(Cc3ccc(C4CC4)cc3)c(Cl)c3c2CCO3)[C@H](O)[C@@H](O)[C@@H]1O [Enavogliflozin, enavogliflozin]
- body weight decrease compared to the control ([1]; normal female beagles, 1 mg/kg/day oral): 19.6%
- body weight decrease compared to the control ([1]; normal female beagles, 3 mg/kg/day oral): 18.5%
- body weight decrease compared to the control ([1]; normal female beagles, 6 mg/kg/day oral): 33.2%
- body weight decrease compared to the control ([1]; normal male beagles, 1 mg/kg/day oral): 17.7%
- body weight decrease compared to the control ([1]; normal male beagles, 3 mg/kg/day oral): 16%
- body weight decrease compared to the control ([1]; normal male beagles, 6 mg/kg/day oral): 29.9%
- Change rates of food consumption (obese dogs [2]; 0.2 mg/kg once a day oral for 8 weeks, week 0): 100.00 ± 0.00%
- Change rates of food consumption (obese dogs [2]; 0.2 mg/kg once a day oral for 8 weeks, week 2): 126.52 ± 5.48 %
- Change rates of food consumption (obese dogs [2]; 0.2 mg/kg once a day oral for 8 weeks, week 4): 146.64 ± 5.37 %
- Change rates of food consumption (obese dogs [2]; 0.2 mg/kg once a day oral for 8 weeks, week 6): 153.71 ± 4.11 %
- Change rates of food consumption (obese dogs [2]; 0.2 mg/kg once a day oral for 8 weeks, week 8): 168.32 ± 4.80 %
- Change rates of food consumption (obese dogs [2]; 0.2 mg/kg once a day oral for 8 weeks, week 10, 0.2 mg/kg): 166.59 ± 4.72 %
- Change rates of food consumption (obese dogs [2]; 0.2 mg/kg once a day oral for 8 weeks, week 10, listed as enavogliflozin, 0.2 mg/kg): 166.59±4.72%
- feed intake compared to the control (OC) (obese dogs [2]; 0.2 mg/kg, p<0.001): significantly increased
- Change rates of food consumption (obese dogs [2]; 0.5 mg/kg once a day oral for 8 weeks, week 0): 100.00 ± 0.00%
- Change rates of food consumption (obese dogs [2]; 0.5 mg/kg once a day oral for 8 weeks, week 2): 95.13 ± 1.67 %
- Change rates of food consumption (obese dogs [2]; 0.5 mg/kg once a day oral for 8 weeks, week 4): 92.34 ± 2.10 %
- Change rates of food consumption (obese dogs [2]; 0.5 mg/kg once a day oral for 8 weeks, week 6): 92.30 ± 1.60 %
- Change rates of food consumption (obese dogs [2]; 0.5 mg/kg once a day oral for 8 weeks, week 8): 93.64 ± 1.67 %
- Change rates of food consumption (obese dogs [2]; 0.5 mg/kg once a day oral for 8 weeks, week 10, 0.5 mg/kg): 98.47 ± 1.44%
- Change rates of food consumption (obese dogs [2]; 0.5 mg/kg once a day oral for 8 weeks, week 10, listed as enavogliflozin, 0.5 mg/kg): 98.47±1.44%
- feed intake compared to the control (OC) (obese dogs [2]; 0.5 mg/kg): decreased
- Change rates of food consumption (obese dogs [2]; 1 mg/kg once a day oral for 8 weeks, week 0): 100.00 ± 0.00%
- Change rates of food consumption (obese dogs [2]; 1 mg/kg once a day oral for 8 weeks, week 2): 100.80 ± 4.20%
- Change rates of food consumption (obese dogs [2]; 1 mg/kg once a day oral for 8 weeks, week 4): 116.02 ± 3.09 %
- Change rates of food consumption (obese dogs [2]; 1 mg/kg once a day oral for 8 weeks, week 6): 121.84 ± 2.50 %
- Change rates of food consumption (obese dogs [2]; 1 mg/kg once a day oral for 8 weeks, week 8): 121.88 ± 2.36 %
- Change rates of food consumption (obese dogs [2]; 1 mg/kg once a day oral for 8 weeks, week 10, 1 mg/kg): 123.15 ± 2.45 %
- Change rates of food consumption (obese dogs [2]; 1 mg/kg once a day oral for 8 weeks, week 10, listed as enavogliflozin, 1 mg/kg): 123.15±2.45%
- feed intake compared to the control (OC) (obese dogs [2]; 1 mg/kg, p<0.001): significantly increased
- platelet (PLT) count compared to the control (OC) (obese dogs [3]; 1 mg/kg, p<0.05): significantly lower than that of the control (OC)
- Urine test - Glucose detection: number of dogs with grade +++, 3 (obese dogs [4]; [8]): 2
- Urine test - Glucose detection: number of dogs with grade +++, 4 (obese dogs [4]; [8]): 1
- Urine test - Glucose detection: number of dogs with grade ++, 2 (obese dogs [4]; [8]): 1
- Urine test - Glucose detection: number of dogs with grade +, 1 (obese dogs [4]; [8]): 1
- Urine test - Glucose detection: number of dogs with grade −, 0 (obese dogs [4]; [8]): 0
- Urine test - Glucose detection: number of dogs with grade +++, 3 (obese dogs [4]; [9]): 1
- Urine test - Glucose detection: number of dogs with grade +++, 4 (obese dogs [4]; [9]): 1
- Urine test - Glucose detection: number of dogs with grade ++, 2 (obese dogs [4]; [9]): 0
- Urine test - Glucose detection: number of dogs with grade +, 1 (obese dogs [4]; [9]): 3
- Urine test - Glucose detection: number of dogs with grade −, 0 (obese dogs [4]; [9]): 0
- Urine test - Glucose detection: number of dogs with grade +++, 3 (obese dogs [4]; [10]): 1
- Urine test - Glucose detection: number of dogs with grade +++, 4 (obese dogs [4]; [10]): 1
- Urine test - Glucose detection: number of dogs with grade ++, 2 (obese dogs [4]; [10]): 1
- Urine test - Glucose detection: number of dogs with grade +, 1 (obese dogs [4]; [10]): 2
- Urine test - Glucose detection: number of dogs with grade −, 0 (obese dogs [4]; [10]): 0
